Paper PMC8393474, “The Interaction of Hemin, a Porphyrin Derivative, with the Purified Rat Brain 2-Oxoglutarate Carrier” (Biomolecules, 2021)

Target: T1, 2-oxoglutarate carrier (OGC) (Rattus norvegicus, UniProt P97700)
T1 construct: gene Slc25a11; native carrier purified from rat brain mitochondria, reconstituted into proteoliposomes
T1 sequence (P97700 2-314): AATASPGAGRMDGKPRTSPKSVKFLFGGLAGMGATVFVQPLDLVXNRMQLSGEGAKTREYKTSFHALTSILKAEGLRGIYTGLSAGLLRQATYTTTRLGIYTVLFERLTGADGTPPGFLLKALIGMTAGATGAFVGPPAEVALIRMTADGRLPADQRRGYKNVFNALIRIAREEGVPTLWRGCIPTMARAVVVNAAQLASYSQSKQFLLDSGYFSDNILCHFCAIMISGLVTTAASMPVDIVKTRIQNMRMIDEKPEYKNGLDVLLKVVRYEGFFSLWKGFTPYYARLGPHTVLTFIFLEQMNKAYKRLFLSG
Assay: inhibition of […] 2-oxoglutarate or […] malate uptake in proteoliposomes reconstituted with purified OGC; Lineweaver-Burk and Dixon plots
Format: biochemical

`C=CC1=C(C)C2=Cc3c(C=C)c(C)c4[n]3[Fe]([Cl])[n]3c(c(C)c(CCC(=O)O)c3=CC3=NC(=C4)C(C)=C3CCC(=O)O)=CC1=N2` [hemin] was tested, and the IC50 was 1580 ± 220 nM.
